The source made the active and inactive calls. The calls are words filed in the database; no cut-off is given here.
System: Nucleic Acid
Test: Binding affinity to human c-MYC Pu24I G-quadruplex structure assessed as stabilization of G-quadruplex by NMR spectroscopy
Format: nucleic-acid assay

| SMILES | Activity |
| --- | --- |
| C[n+]1ccc(-c2c3nc(c(-c4cc[n+](C)cc4)c4ccc([nH]4)c(-c4cc[n+](C)cc4)c4ccc([nH]4)c(-c4cc[n+](C)cc4)c4nc2C=C4)C=C3)cc1 | Active |
| COc1cccc2c1C(=O)c1c(O)c3c(c(O)c1C2=O)C[C@@](O)(C(C)=O)C[C@@H]3O[C@H]1C[C@H](N)[C@H](O)[C@H](C)O1 | Active |
| CC[n+]1c(-c2ccccc2)c2cc(N)ccc2c2ccc(N)cc21 | Active |
| CN1CCN(c2ccc3[nH]c(-c4ccc5[nH]c(-c6ccc(O)cc6)nc5c4)nc3c2)CC1 | Active |
